Assay results taken from ChEMBL document CHEMBL1135051, “N-arylalkylpiperidines as high-affinity sigma-1 and sigma-2 receptor ligands: phenylpropylamines as potential leads for selective sigma-2 agents” (Bioorg Med Chem Lett, 2002).

Tests used:
[1] = molecular target: Sigma 2 receptor; assay: Binding affinity for sigma-2 receptor by displacing [3H]DTG in presence of dextrallorphan; set-up: species or system Rattus norvegicus
[2] = molecular target: Sigma non-opioid intracellular receptor 1 (Rattus norvegicus, UniProt Q9R0C9); assay: Binding affinity for sigma-1 receptor by displacing [3H]-(+) pentazocine
Chain of Sigma non-opioid intracellular receptor 1 (Q9R0C9 whole entry): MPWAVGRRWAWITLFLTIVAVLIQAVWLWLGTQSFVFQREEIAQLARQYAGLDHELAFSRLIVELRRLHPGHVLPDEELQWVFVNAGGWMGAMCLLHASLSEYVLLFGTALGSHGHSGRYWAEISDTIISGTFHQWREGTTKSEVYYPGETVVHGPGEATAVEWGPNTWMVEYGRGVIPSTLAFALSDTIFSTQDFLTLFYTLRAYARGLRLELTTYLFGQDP

Structure (SMILES)	Ki [1] [nM]	Ki [2] [nM]
c1ccc(CCN2CCN(c3ccccn3)CC2)cc1	119	326
CC1CCCN(CCc2ccccc2)C1 (stereo not given)	84.4	4.15
CC1CCN(CCc2ccccc2)CC1	33.3	20.9
c1ccc(CCN2CCCCC2)cc1 [1-PHENETHYLPIPERIDINE]	112	88.5

Further lines, results first:

Ki [1] [nM]	Ki [2] [nM]	Structure (SMILES)
4.91	82.9	c1ccc(CCCN2CCN(c3ccccn3)CC2)cc1
14.2	13.9	c1ccc(CCCN2CCc3ccccc3C2)cc1
57.3	5.9	c1ccc(CCN2CCc3ccccc3C2)cc1
6.61	5.25	CC1CCCN(CCCc2ccccc2)C1 (stereo not given)
25	143	c1ccc(CCCN2CCCCC2)cc1
12.1	3.35	CC1CCN(CCCc2ccccc2)CC1
